From US20250270206A1, “COMPOSITIONS AND METHODS FOR INHIBITION OF RAS” (TheRas, Inc., priority 2022, published 2025)

How the values were obtained:
pERK in NCI-H358 cells = experiment: Cell-based pERK HTRF assay; conditions: Homo sapiens, 0.5 h, 30 min incubation
Protocol: pERK HTRF assays (Perkin Elmer) were used to determine the effectiveness of compounds of the present disclosure in disrupting KRAS G12C protein/effector signaling in cells.
On Day 1, cells (NCI-H358) were seeded into 96-well plates at 4×10^4 cells/well in complete growth media (RPMI, 10% FBS).
On Day 2, cells were treated with compounds at 0.25% DMSO. The source plate was created with compounds diluted in media at 5-fold the final assay concentration. The compounds were run in a 9-point concentration curve starting at 75 μM, with a 3-fold dilution between concentrations. 20 μL was transferred onto the cell plates (final volume in wells was 100 μL). Plates were harvested after 30 min incubation by aspirating media and adding kit-supplied 1× supplemented lysis buffer to all wells (75 μL per well). Plates were then placed on a plate shaker and incubated at 850 rpm for an additional 30 min.
Antibody mixture solution was prepared by diluting aliquoted d2 and Eu Cryptate antibodies 1:20 in kit supplied detection buffer, then mixed the diluted antibodies solutions (1:1 v:v). 4 μL of this solution was then added to a 384-well detection plate (Perkin Elmer; 6008230).
Samples were homogenized by pipetting up and down and then transferred (16 μL of cell lysates) from the 96-well cell culture plate to two wells of the HTRF 384-well detection plate containing the antibody solution. Plates were centrifuged (524 g for 1 min) and allowed to incubate between 4 and 24 h at room temperature. Maximum signal is reached after 4 h incubation time and remains stable over a period of 24 hours. Therefore, readings can be made between 4 and 24 h of incubation. Plates were centrifuged again (524 g for 1 min) and analyzed on the EnVision plate reader using the following settings: Excitation 320 nm, Bandwidth 75 nm; Emission 615 nm, Bandwidth 85 nm; Gain 100%; Flashes 100; Lag 60 μs.

[1] = biological target: T1, GDP-loaded KRAS4b (amino acids 1-169) G12C/C118S (Homo sapiens, UniProt P01116, C118S/G12C); experiment: MALDI-TOF MS covalent Cys12 modification, GDP-loaded KRAS G12C; format: binding; conditions: 15 minutes reaction time, 1 μM protein, 1:2.5 protein to compound ratio
T1 construct: KRAS4b (amino acids 1-169) G12C/C118S protein; made in house
Protocol: (§1) MALDI-TOF MS analysis was performed using 1 μM protein target, and 1:2.5 protein to compound ratio was used.
(§2) Reaction: 1 μM of GppNHp, GTP, or GDP-loaded KRAS4b (amino acids 1-169) G12C/C118S protein (produced in-house by Protein Expression Laboratory, FNLCR/Leidos Biomed) in 20 mM 4-(2-hydroxyethyl)-1-piperazineethanesulfonic acid (HEPES) buffer containing 150 mM NaCl, 1 mM MgCl2, pH 7.3 was prepared freshly before assay. Ten-μL aliquots of protein were dispensed onto low volume 384-well plate, then 375 nL DMSO, and 25 nL of tested compounds from 5 mM DMSO stocks were added to appropriate wells using ECHO 555 acoustic liquid handler (Labcyte Inc.). For each reaction/assay, three blanks were prepared by mixing 10 μL of protein solution with 400 nL DMSO. The contents of the wells were carefully mixed by aspiration, and then each plate was sealed with an adhesive cover, centrifuged at 2000 g for 1 minute, and kept in the dark at room temperature until 5 min, 15 min, 30 min, 2 h, or 6 h collections.
(§3) Target pretreatment: Before each assay MALDI target (Bruker MPT 384 ground steel BC) was pre-treated by pipetting on each spot 0.75 μL of saturated sinapinic acid in acetonitrile (ACN).
(§4) Sample preparation: At collection time point, 2 μL of reaction mixtures were pipetted out into 20 μL MALDI matrix solution (saturated solution of sinapinic acid in 1:1 ACN:water solution containing 0.75% trifluoroacetic acid (TFA)) deposited on 384 well polypropylene plate. Resulting solution was mixed by aspiration, centrifuged at 2000 g for 1 minute, then 1 μL aliquots were dispensed on pre-treated MALDI target using Beckman Coulter Biomek FX^P 96/384-Span-8 Laboratory Automation Workstation. Finally, the MALDI target was dried under mild vacuum to produce spots with fine crystalline structure.
(§5) Measurements: MALDI-TOF measurements were performed on a Bruker Daltonics rapifleX Tissuetyper TOF-TOF mass spectrometer using linear mode and mass range from 18.6 to 21.6 kDa. Detector gain was set to 3.3× (483 V), sample rate to 5 GS/s, real time smoothing to medium (175 MHz), laser smart beam pattern was set to: “MS Thin Layer M5”, and the laser frequency was 10000 Hz. Spectra were automatically collected using custom AutoXecute method. Laser power was auto adjusted using fuzzy control. The peak selection range was set to be between 19000 and 21500 Da. Peak evaluation uses half width parameter set to be smaller than 40 Da for processed spectrograms (centroid peak detection: smoothed by SavitzkyGolay algorithm using 7 m/z width and 2 cycles; baseline was subtracted using median algorithm with flatness 1 and median level 0.01). Fuzzy control used Proteins/Oligonucleotides protocol with minimum half width 1/10 times above threshold. Up to 40000 satisfactory shots were collected in 10000 shot steps. Dynamic termination was implemented to finish data collection when peak signal/noise ratio reached a value of 50.
(§6) Spectra processing: Spectra were smoothed by SavitzkyGolay algorithm using 7 m/z width and three cycles. Centroid peak detection algorithm was used with signal to noise threshold set to 6, relative intensity threshold 4%, peak width 10 m/z and median baseline subtraction using flatness of 1 and median level of 0.01. Peak intensity and area under the peak were evaluated and recorded for all peaks between 19,300 Da and 21,550 Da.
(§7) Calculation of percent modification: Percent modification was calculated as a ratio of peak height for protein modified by compound to sum of peak height of remaining protein plus peak height for protein modified by compound. If multiple modifications were observed each was calculated as a ratio of peak height for given modification versus sum of peak heights for all observed protein species. Data reported in Table 5 are from the 15 minutes reaction time point.

[2] = biological target: T2, GTP-loaded KRAS4b (amino acids 1-169) G12C/C118S (Homo sapiens, UniProt P01116, C118S/G12C); experiment: MALDI-TOF MS covalent Cys12 modification, GTP-loaded KRAS G12C; format: binding; conditions: 15 minutes reaction time, 1 μM protein, 1:2.5 protein to compound ratio
T2 construct: KRAS4b (amino acids 1-169) G12C/C118S protein; made in house
Protocol: as §1, §2, §3, §4, §5, §6, §7

[3] = biological target: T3, GppNHp-loaded KRAS4b (amino acids 1-169) G12C/C118S (Homo sapiens, UniProt P01116, C118S/G12C); experiment: MALDI-TOF MS covalent Cys12 modification, GppNHp-loaded KRAS G12C; format: binding; conditions: 15 minutes reaction time, 1 μM protein, 1:2.5 protein to compound ratio
T3 construct: KRAS4b (amino acids 1-169) G12C/C118S protein; made in house
Protocol: as §1, §2, §3, §4, §5, §6, §7

[4] = biological target: T4, Avi-KRAS G12C (1-169) GppNHp/RAF1 RBD-3×FLAG (52-151) (Homo sapiens, UniProt P01116, G12C); experiment: KRAS G12C-effector (RAF1 RBD) protein:protein interaction HTRF disruption assay; format: biochemical; conditions: PPI HTRF
T4 construct: Avi-KRAS G12C (1-169) GppNHp
Protocol: A protein:protein interaction (PPI) Homogeneous Time Resolved Fluorescence (HTRF) assay was used to determine the effectiveness of compounds of the present disclosure in disrupting KRAS G12C protein and effector (RAF1) binding.
The HTRF assay used the following reagents and proteins: 50 nM Avi-KRAS G12C (1-169) GppNHp/RAF1 RBD-3×FLAG (52-151); 75 nM Avi-RAF1 RBD-3×FLAG; Assay Buffer: 50 mM Tris pH 7.5, 100 mM NaCl, 5 mM MgCl2, 0.1% BSA, 0.01% Tween 20, 10% DMSO; Bead Buffer: 50 mM Tris pH 7.5, 0.01% Tween 20; Assay volume: 20 μL (384 well plate-low volume format); and Compound titration: 30-0.02 μM, 3× dilution series.
The HTRF assay employed the following protocol:
Compounds were dispensed in assay plate (384-well, Grenier Bione #784075) using Echo (model 555) with dose response settings: 200 nL final volume, titration from 100 μM as a 10-point dilution series. KRAS proteins were prepared in assay buffer, and dispensed on plates, 5 μL per well, then incubated for 1 h at room temperature, with 700 rpm shaking. RAF1 RBD were prepared in assay buffer, dispensed onto plates, 5 μL per well, and then incubated for 1 h at room temperature, with 700 rpm shaking. Reagent mix was then prepared and dispensed on plates, 10 μL per well, and then incubated for 1 h at room temperature, with 700 rpm shaking.
Plates were analyzed on an Envision plate reader using the following setting: Excitation 320 nm, Bandwidth 75 nm, Emission 615 nm, Bandwidth 85 nm; Gain 100%; Flashes 100; Lag 60 μs. Data was reported as percentage of activity, with DMSO as 100%. Data was plotted and analyzed using Prism 8.

Row | IC50 (pERK in NCI-H358 cells) [µM] | GDP-KRAS G12C percent of modification [1] | GTP-KRAS G12C percent of modification [2] | GppNHp-KRAS G12C percent of modification [3] | IC50 [4] [µM] | SMILES
1 | ≤ 0.1 | A (percent of modification ≥70%) | A (percent of modification ≥70%) | A (percent of modification ≥70%) | ≤ 0.5 | C=CC(=O)N1CC[C@@H](N(C)c2nc(OC[C@@]34CCCN3C[C@H](F)C4)nc3c(F)c(-c4ccc(F)c5sc(N)c(C#N)c45)ncc23)C1 [Compound 6, 2-amino-7-fluoro-4-[8-fluoro-2-[[(2R,8S)-2-fluoro-1,2,3,5,6,7-hexahydropyrrolizin-8-yl]methoxy]-4-[methyl-[(3R)-1-prop-2-enoylpyrrolidin-3-yl]amino]pyrido[4,3-d]pyrimidin-7-yl]benzothiophene-3-carbonitrile]
2 | ≤ 0.1 | A (percent of modification ≥70%) | D (percent of modification <10%) | B (50% percent of modification <70%) | ≤ 0.5 | C=CC(=O)N1C[C@H](C)N(c2nc(OC[C@@]34CCCN3C[C@H](F)C4)nc3c(F)c(-c4ccc(F)c5sc(N)c(C#N)c45)ncc23)C[C@H]1C [Compound 7, 2-amino-4-[4-[(2S,5R)-2,5-dimethyl-4-prop-2-enoyl-piperazin-1-yl]-8-fluoro-2-[[(2R,8S)-2-fluoro-1,2,3,5,6,7-hexahydropyrrolizin-8-yl]methoxy]pyrido[4,3-d]pyrimidin-7-yl]-7-fluoro-benzothiophene-3-carbonitrile]
3 | ≤ 0.1 | C (10%≤percent of modification <50%) | C (10%≤percent of modification <50%) | C (10%≤percent of modification <50%) | ≤ 0.5 | C=CC(=O)N1CC[C@@H](N(C)c2nc(OC[C@@]34CCCN3C[C@H](F)C4)nc3cc(-c4ccc(F)c5sc(N)c(C#N)c45)c(C(F)(F)F)nc23)C1 [Compound 8]

The next lines start with the compound.

Row | SMILES | IC50 (pERK in NCI-H358 cells) [µM] | GDP-KRAS G12C percent of modification [1] | GTP-KRAS G12C percent of modification [2] | GppNHp-KRAS G12C percent of modification [3] | IC50 [4] [µM]
4 | C=CC(=O)N1CCC(N(C)c2nc(OC[C@@]34CCCN3C[C@H](F)C4)nc3c(Cl)c(-c4ccc(F)c5sc(N)c(C#N)c45)ncc23)[C@H]1COC (mixture of isomers) [Compound 29, 4-(4-((rac-(2S,3R)-1-acryloyl-2-(methoxymethyl)pyrrolidin-3-yl)(methyl)amino)-8-chloro-2-(((2R,7aS)-2-fluorotetrahydro-1H-pyrrolizin-7a(5H)-yl)methoxy)pyrido[4,3-d]pyrimidin-7-yl)-2-amino-7-fluorobenzo[b]thiophene-3-carbonitrile] | ≤ 0.1 | A (percent of modification ≥70%) | A (percent of modification ≥70%) | A (percent of modification ≥70%) | ≤ 0.5
5 | C=CC(=O)N1CC[C@@H](N(C)c2nc(OC[C@@]34CCCN3C[C@H](F)C4)nc3c(F)c(-c4c(F)cc(F)c5sc(N)nc45)ncc23)C1 [Compound 5] | ≤ 0.1 | A (percent of modification ≥70%) | A (percent of modification ≥70%) | A (percent of modification ≥70%) | ≤ 0.5
6 | C=CC(=O)N1CCC(N(C)c2nc(OCCO)nc3c(F)c(-c4ccc(F)c5sc(N)c(C#N)c45)ncc23)[C@H]1C (stereo partly drawn) [Compound 35] | > 1 | C (10%≤percent of modification <50%) | D (percent of modification <10%) | D (percent of modification <10%) | 
7 | C=CC(=O)N1CCC(N(C)c2ncnc3c(F)c(-c4ccc(F)c5sc(N)c(C#N)c45)ncc23)[C@H]1C (stereo partly drawn) [Compound 36] | > 1 | C (10%≤percent of modification <50%) | D (percent of modification <10%) | D (percent of modification <10%) | 
